The test relates to HIV-1 (H9IIIB strain). Put plainly: Cell-based HIV infection assay using a reporter (Cell-Based), MT4-GFP cells. Conditions: Human immunodeficiency virus 1, MT4-GFP cells infected with HIV-1 H9IIIB; 50% normal human serum; mean of at least two independent experiments; read-out: Cell-based IP. The method, then:
Cell-Based HIV Infection Assay Using a Reporter (“Cell-Based”):
MT4-GFP cells contain a stably integrated HIV long terminal repeat promoter directing the transcription of green fluorescent protein (GFP). When HIV infects the cell, GFP is produced and the cell becomes green. MT4-GFP cells (250,000 cells/ml) were bulk-infected with HIV-1 (H9IIIB strain) at low multiplicity of infection (MOI) in RPMI media, supplemented with 10% FBS for 24 hours. Cells were then washed once in RPMI plus 10% FBS and resuspended in RPMI plus 50% normal human serum (NHS). Test compounds were serial-diluted in DMSO using an ECHO liquid dispenser. A control well included a combination of three HIV drugs (an inhibitor of HIV protease, integrase strand transfer and a non-nucleoside reverse transcriptase inhibitor; triple drug). The infected MT4-GFP cells were added to a 384-well poly-D-lysine coated black plate with clear bottom in which the diluted test compounds were placed. The cells were seeded in the plate at 8,000 cells per well and the final DMSO concentration was 0.4%. Infected cells were quantified at both 24 and 48 hours post incubation using an Acumen eX3 plate reader. Viral reproductive ratio (R0) was determined using the number of infected cells at 48 hours divided by the number of infected cells at 24 hours. Percent viral growth inhibition was calculated by [1−(R−Rtripledrug)/(RDMSO−Rtripledrug)]*100. Compound potency IP or IC50 was determined with use of a 4-parameter dose response curve analysis.
On to `COC(=O)N[C@H](C(=O)Nc1cccc(F)c1CC[C@H]1CNCC2(CC2)CN1S(=O)(=O)c1ccccc1)[C@@H](c1ccc(Cl)cc1)c1ccc(OC)nc1` [Example 19, Methyl ((1S,2S)-1-(4-chlorophenyl)-3-((3-fluoro-2-(2-((S)-5-phenylsulfonyl)-5,8-diazaspiro[2.6]nonan-6-yl)ethyl)phenylamino)-1-(6-methoxypyridin-3-yl)-3-oxopropan-2-yl)carbamate 2,2,2-trifluoroacetate], for which the IC50 came to 16 nM.

Regarding `COC(=O)N[C@H](C(=O)Nc1cccc(F)c1CC[C@H]1CNCC2(CC2)CN1S(=O)(=O)c1ccccc1)[C@@H](c1ccc(F)cc1)C1CCOCC1` [Example 20, Methyl ((2S,3R)-1-((3-fluoro-2-(2-((S)-5-(phenylsulfonyl)-5,8-diazaspiro[2.6]nonan-6-yl)ethyl)phenyl)amino)-3-(4-fluorophenyl)-1-oxo-3-(tetrahydro-2H-pyran-4-yl)propan-2-yl)carbamate], the IC50 was determined as 21 nM.

`N[C@H](C(=O)Nc1cncc(F)c1CC[C@H]1CNCCN1S(=O)(=O)CC1CC1)[C@@H](c1ccc(F)cc1)c1cc(F)cc(F)c1` [Example 28, (βS)-N-[4-(2-{(2S)-1-[(cyclopropylmethyl)sulfonyl]piperazin-2-yl}ethyl)-5-fluoropyridin-3-yl]-3,5-difluoro-β-(4-fluorophenyl)-L-phenylalaninamide]: the IC50 was found to be 21 nM.

On to `Nc1ccc(S(=O)(=O)N2CCNC[C@@H]2CCc2c(F)cncc2NC(=O)[C@@H](N)[C@@H](c2ccc(F)cc2)c2cc(F)cc(F)c2)cn1` [Example 29, (βS)-N-[4-(2-{(2S)-1[(6-aminopyridin-3-yl)sulfonyl]piperazin-2-yl}ethyl)-5-fluoropyridin-3-yl]-3,5-difluoro-β-(4-fluorophenyl)-L-phenylalaninamide], for which the IC50 was 520 nM.

As to `N[C@H](C(=O)Nc1cncc(F)c1CC[C@H]1CNCCN1S(=O)(=O)c1ccccc1)[C@@H](c1ccc(F)cc1)c1cc(F)cc(F)c1` [Example 30, (βS)-β-(3,5-difluorophenyl)-4-fluoro-N-(5-fluoro-4-{2-[(2S)-1-(phenylsulfonyl)piperazin-2-yl]ethyl}pyridin-3-yl)-L-phenylalaninamide], the IC50 is 9.3 nM.

Take `N[C@H](C(=O)Nc1cccc(F)c1CC[C@@H]1CNCCN1S(=O)(=O)c1ccccc1)C(c1ccc(F)cc1)c1ccc(F)cc1` [Example 31, (S)-2-amino-N-(3-fluoro-2-(2-((R)-1-(phenylsulfonyl)piperazin-2-yl)ethyl)phenyl)-3,3-bis(4-fluorophenyl) propanamide]: the IC50 turned out to be 850 nM.

For `N[C@H](C(=O)Nc1cccc(F)c1CC[C@H]1CNCCN1S(=O)(=O)c1ccccc1)C(c1ccc(F)cc1)c1ccc(F)cc1` [Example 32, (S)-2-amino-N-(3-fluoro-2-(2-((S)-1-(phenylsulfonyl)piperazin-2-yl)ethyl)phenyl)-3,3-bis(4-fluorophenyl) propanamide], the IC50 was found to be 6.6 nM.

`N[C@H](C(=O)Nc1cncc(F)c1CC[C@H]1CNCCN1S(=O)(=O)C1CC1)[C@@H](c1ccc(F)cc1)c1cc(F)cc(F)c1` [Example 33, (βS)-N-(4-{2-[(2S)-1-(cyclopropylsulfonyl)piperazin-2-yl]ethyl}-5-fluoropyridin-3-yl)-3,5-difluoro-β-(4-fluorophenyl)-L-phenylalaninamide]: the IC50 came out at 25 nM.

Turning to `N[C@H](C(=O)Nc1cccc(F)c1CCC1CNCCN1S(=O)(=O)c1ccccc1)C(c1cc(F)cc(F)c1)c1cc(F)cc(F)c1` (stereo partly drawn) [Example 34, β-(3,5-difluorophenyl)-3,5-difluoro-N-(3-fluoro-2-{2-[1-(phenylsulfonyl)piperazin-2-yl]ethyl}phenyl)-L-phenylalaninamide], the IC50 was determined as 16 nM.

As for `N[C@H](C(=O)Nc1cncc(F)c1CC[C@H]1CNCCN1S(=O)(=O)c1ccccc1)[C@@H](c1ccc(Cl)cc1)c1cccc(F)c1` [Example 35, (βS)-4-chloro-β-(3-fluorophenyl)-N-(5-fluoro-4-{2-[(2S)-1-(phenylsulfonyl)piperazin-2-yl]ethyl}pyridin-3-yl)-L-phenylalaninamide], the IC50 worked out at 13 nM.

As to `O=C(C[C@@H](c1ccc(Cl)cc1)C1CCS(=O)(=O)CC1)Nc1cccc(F)c1CC[C@H]1CNCCN1S(=O)(=O)c1ccccc1` [Example 36, (3R)-3-(4-chlorophenyl)-3-(1,1-dioxidotetrahydro-2H-thiopyran-4-yl)-N-(3-fluoro-2-{2-[(2S)-1-(phenylsulfonyl)piperazin-2-yl]ethyl}phenyl) propanamide], the IC50 came out at 29 nM.

Consider `N[C@H](C(=O)Nc1cccc(F)c1CC[C@H]1CNCCN1S(=O)(=O)c1ccccc1)[C@@H](c1ccc(Cl)c(F)c1)C1CCOCC1` [Example 37, (βR)-4-chloro-3-fluoro-N-(3-fluoro-2-{2-[(2S)-1-(phenylsulfonyl)piperazin-2-yl]ethyl}phenyl)-β-(tetrahydro-2H-pyran-4-yl)-L-phenylalaninamide], for which the IC50 worked out at 46 nM.

As for `N[C@H](C(=O)Nc1cccc(F)c1CC[C@@H]1CNCCN1S(=O)(=O)c1ccccc1)[C@@H](c1ccc(Cl)c(F)c1)C1CCOCC1` [Example 38, (βR)-4-chloro-3-fluoro-N-(3-fluoro-2-{2-[(2R)-1-(phenylsulfonyl)piperazin-2-yl]ethyl}phenyl)-β-(tetrahydro-2H-pyran-4-yl)-L-phenylalaninamide], the IC50 is 890 nM.

As to `N[C@H](C(=O)Nc1cccc(F)c1CC[C@H]1CNCCN1S(=O)(=O)c1ccccc1)[C@@H](c1ccc(Cl)cc1)c1cccc(F)c1` [Example 39, (βS)-4-chloro-β-(3-fluorophenyl)-N-(3-fluoro-2-{2-[(2S)-1-(phenylsulfonyl)piperazin-2-yl]ethyl}phenyl)-L-phenylalaninamide], the IC50 was 12 nM.

As for `N[C@H](C(=O)Nc1cccc(F)c1CC[C@H]1CNCCN1S(=O)(=O)c1ccccc1)[C@@H](c1ccc(Cl)cc1)C1CCS(=O)(=O)CC1` [Example 41, (βR)-4-chloro-β-(1,1-dioxidotetrahydro-2H-thiopyran-4-yl)-N-(3-fluoro-2-{2-[(2S)-1-(phenylsulfonyl)piperazin-2-yl]ethyl}phenyl)-L-phenylalaninamide], the IC50 stood at 34 nM.

`N[C@H](C(=O)Nc1cccc(F)c1CC[C@H]1CNCCN1S(=O)(=O)c1ccccc1)[C@@H](c1ccc(Cl)cc1)c1cccc(OC(F)(F)F)c1` [Example 42, (βS)-4-chloro-N-(3-fluoro-2-{2-[(2S)-1-(phenylsulfonyl)piperazin-2-yl]ethyl}phenyl)-β-[3-(trifluoromethoxy)phenyl]-L-phenylalaninamide]: the IC50 is 60 nM.

Regarding `N[C@H](C(=O)Nc1cccc(F)c1CC[C@H]1CNCCN1S(=O)(=O)c1ccccc1)[C@@H](c1ccc(Cl)cc1)c1cc(F)cc(F)c1` [Example 43, (βS)-4-chloro-β-(3,5-difluorophenyl)-N-(3-fluoro-2-{2-[(2S)-1-(phenylsulfonyl)piperazin-2-yl]ethyl}phenyl)-L-phenylalaninamide], the IC50 was determined as 12 nM.

For `N[C@H](C(=O)Nc1cccc(F)c1CC[C@H]1CNCCN1S(=O)(=O)c1ccccc1)[C@@H](c1ccc(Cl)cc1)c1cncc(F)c1` [Example 44, (βS)-4-chloro-N-(3-fluoro-2-{2-[(2S)-1-(phenylsulfonyl)piperazin-2-yl]ethyl}phenyl)-β-(5-fluoropyridin-3-yl)-L-phenylalaninamide], the IC50 is 15 nM.

On to `N[C@H](C(=O)Nc1cncc(F)c1CC[C@H]1CNCCN1S(=O)(=O)c1ccccc1)[C@@H](c1ccc(Cl)cc1)c1cccc(OC(F)(F)F)c1` [Example 45, (βS)-4-chloro-N-(5-fluoro-4-{2-[(2S)-1-(phenylsulfonyl)piperazin-2-yl]ethyl}pyridin-3-yl)-β-[3-(trifluoromethoxy)phenyl]-L-phenylalaninamide], for which the IC50 was found to be 16 nM.

For the compound `N[C@H](C(=O)Nc1cncc(F)c1CC[C@H]1CNCCN1S(=O)(=O)c1ccccc1)[C@@H](c1ccc(Cl)cc1)c1cc(F)cc(F)c1` [Example 46, (βS)-4-chloro-β-(3,5-difluorophenyl)-N-(5-fluoro-4-{2-[(2S)-1-(phenylsulfonyl)piperazin-2-yl]ethyl}pyridin-3-yl)-L-phenylalaninamide], the IC50 was found to be 12 nM.

Turning to `N[C@@H](Cc1ccc(F)cc1)C(=O)Nc1cncc(F)c1CC[C@H]1CNCCN1S(=O)(=O)C1CC1` [Example 47, N-(4-{2-[(2S)-1-(cyclopropylsulfonyl)piperazin-2-yl]ethyl}-5-fluoropyridin-3-yl)-4-fluoro-L-phenylalaninamide], the IC50 was 1200 nM.

`COC(=O)N[C@H](C(=O)Nc1cncc(F)c1CC[C@H]1CNCCN1S(C)(=O)=O)[C@@H](c1ccc(F)cc1)c1cc(F)cc(F)c1` [Example 48, methyl ((1S,2S)-1-(3,5-difluorophenyl)-3-((5-fluoro-4-(2-((S)-1-(methylsulfonyl)piperazin-2-yl)ethyl)pyridin-3-yl)amino)-1-(4-fluorophenyl)-3-oxopropan-2-yl)carbamate]: the IC50 was 66 nM.
